Among the test systems are CCRF-CEM; HOP-18; SNB-19; M14; SNB-78; NCI-H522; SW-620; CAKI-1; TK-10; RXF 393; IGROV-1; U-251; SK-MEL-28; A498; NCI-H226.
What all share (test): inhibition of tumour cell growth, NCI panel, 48 h

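Tested at 5 concentrations; 48 h exposure; 96-well plates; endpoints linearly interpolated, else capped at highest concentration. Abbreviation: GI50, concentration required for 50% inhibition of growth.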 Calls of active or inactive are those of the source. Cut-off read from the data, not from the text of the source: active = GI50 up to about 1.1 µM and inactive = higher. Bounds are passed on as bounds.

For `C(=N\OCc1ccccc1)/c1ncccc1C1OCCO1`, the GI50 in the assay on CCRF-CEM, in the assay on HOP-18, in the assay on SNB-19, in the assay on M14, in the assay on SNB-78 and in the assay with NCI-H522 was > 100 µM (inactive) throughout. Besides, the GI50 in the assay on SW-620, with CAKI-1, with TK-10, in the assay on RXF 393, in the assay with IGROV-1 and with U-251 was > 100 µM (inactive) each time. For the same compound, in the assay on SK-MEL-28, the GI50 is > 100 µM (inactive).
For the compound `OCC1OC(c2nc(C3=NCCCN3)cs2)C(O)C1O` (stereo not drawn), the GI50 with CCRF-CEM, in the assay on HOP-18, in the assay with SNB-19, in the assay with A498, with M14 and in the assay with SNB-78 was > 100 µM (inactive) throughout. Also, the GI50 in the assay with NCI-H522, in the assay on SW-620, with CAKI-1, with NCI-H226, in the assay with TK-10 and in the assay on IGROV-1 was > 100 µM (inactive) in each case. Besides, the GI50 with U-251 and in the assay with SK-MEL-28 was > 100 µM (inactive) each time.
Consider `CN(/N=C/c1cccc2cccnc12)c1ccc([N+](=O)[O-])cc1`, for which the GI50 in the assay on CCRF-CEM, with HOP-18, in the assay with SNB-19, in the assay with A498, in the assay on M14 and in the assay on SNB-78 was > 100 µM (inactive) each time. The GI50 was > 100 µM (inactive) with SW-620; > 100 µM (inactive) in the assay with CAKI-1; > 100 µM (inactive) with NCI-H226; 91.2 µM (inactive) with TK-10; > 100 µM (inactive) with RXF 393; > 100 µM (inactive) in the assay on IGROV-1. Further, in the assay on SK-MEL-28, the GI50 was > 100 µM (inactive).
`C=C1CCc2occ(C)c2C2C1C1=C(CC(C)C1=O)C1OC12C` (stereo not drawn): the GI50 with CCRF-CEM was > 100 µM (inactive); with HOP-18 it was 2.26 µM (inactive); with SNB-19, 26.5 µM (inactive); in the assay with A498, > 100 µM (inactive); in the assay on M14, > 100 µM (inactive); with SNB-78, > 100 µM (inactive). Besides, the GI50 is 44.8 µM (inactive) in the assay on NCI-H522; > 100 µM (inactive) with SW-620; > 100 µM (inactive) in the assay on NCI-H226; > 100 µM (inactive) in the assay with TK-10; > 100 µM (inactive) in the assay on RXF 393; > 100 µM (inactive) in the assay on IGROV-1. In addition, the GI50 in the assay on U-251 and in the assay with SK-MEL-28 was > 100 µM (inactive) in each case.
Turning to `CCOc1cccc2nc3cccc(C(=O)NCCN(C)C)c3nc12`, the GI50 is 3.94 µM (inactive) in the assay with HOP-18; 1.89 µM (inactive) with SNB-19; 0.74 µM (active) in the assay with A498; 2.19 µM (inactive) in the assay on M14; 1.88 µM (inactive) in the assay on SNB-78; 2.3 µM (inactive) in the assay on NCI-H522. In addition, the GI50 with SW-620 was 0.543 µM (active); in the assay with CAKI-1 it was 3.16 µM (inactive); in the assay with NCI-H226, 0.506 µM (active); in the assay with TK-10, 1.27 µM (inactive); in the assay on RXF 393 it was 1.59 µM (inactive); in the assay on IGROV-1, 1.04 µM (active). Also, the GI50 in the assay with U-251 was 1.34 µM (inactive); with SK-MEL-28, 1.93 µM (inactive).
In the case of `Clc1ccc(SCCSCCCCCCCCCCSCCSc2ccc(Cl)cc2)cc1`, the GI50 with CCRF-CEM, with HOP-18, in the assay with SNB-19, in the assay with A498, in the assay on SNB-78 and in the assay with NCI-H522 was > 100 µM (inactive) in each case. Also, the GI50 in the assay on SW-620, in the assay on CAKI-1, with NCI-H226, in the assay with TK-10, in the assay on RXF 393 and in the assay with IGROV-1 was > 100 µM (inactive) throughout. Moreover, the GI50 in the assay with U-251 and in the assay with SK-MEL-28 was > 100 µM (inactive) throughout.
Consider `CC(=O)OCCOCNC(=S)N/N=C/c1ccc2ccccc2n1`, for which the GI50 in the assay on CCRF-CEM is 54 µM (inactive); with HOP-18, 75.9 µM (inactive); in the assay on SNB-19, > 100 µM (inactive); with A498, > 100 µM (inactive); in the assay with M14, 32.5 µM (inactive); in the assay on SNB-78 it was > 100 µM (inactive). Also, the GI50 in the assay with NCI-H522 was 14.1 µM (inactive); with SW-620, 36.1 µM (inactive); in the assay on NCI-H226, > 100 µM (inactive); in the assay with TK-10 it was 69 µM (inactive); with RXF 393, 46.2 µM (inactive); in the assay with IGROV-1, 44.6 µM (inactive). In addition, the GI50 was 29.2 µM (inactive) with U-251 and 70.1 µM (inactive) with SK-MEL-28.
`C/C=C(\C)c1cc(O)c(C)c2c1Oc1cc(O)c(Cl)c(C)c1C(=O)O2`: the GI50 was < 0.01 µM (active) in the assay with HOP-18; 17.3 µM (inactive) with SNB-19; 20.1 µM (inactive) in the assay on M14; 29.1 µM (inactive) with SNB-78; 19.4 µM (inactive) in the assay with NCI-H522; 19.6 µM (inactive) with SW-620. Besides, the GI50 in the assay on CAKI-1 was 27.4 µM (inactive); in the assay with NCI-H226, 18.5 µM (inactive); with TK-10, 16.2 µM (inactive); in the assay on RXF 393, 18.8 µM (inactive); with U-251, 23.4 µM (inactive); in the assay with SK-MEL-28, 22.4 µM (inactive).
Turning to `CC(=O)OCCOCNC(=S)N/N=C/c1cc([N+](=O)[O-])ccc1O`, the GI50 with CCRF-CEM is 56.6 µM (inactive); with HOP-18, > 100 µM (inactive); in the assay on SNB-19, > 100 µM (inactive); in the assay on A498, > 100 µM (inactive); with M14 it was 86.7 µM (inactive); in the assay with SNB-78, > 100 µM (inactive). Besides, the GI50 in the assay on NCI-H522 was 30.5 µM (inactive); in the assay on SW-620 it was 84.9 µM (inactive); in the assay with NCI-H226, > 100 µM (inactive); in the assay on TK-10, > 100 µM (inactive); in the assay on RXF 393, > 100 µM (inactive); in the assay with IGROV-1, > 100 µM (inactive). Further, the GI50 in the assay with U-251 and in the assay with SK-MEL-28 was > 100 µM (inactive) throughout.
`C[P+]1(c2ccccc2)CCCCC1`: the GI50 with CCRF-CEM was > 100 µM (inactive); in the assay with HOP-18, 0.0484 µM (active); in the assay with SNB-19, > 100 µM (inactive); with A498, > 100 µM (inactive); in the assay with M14, > 100 µM (inactive); in the assay with SNB-78, > 100 µM (inactive). In addition, the GI50 with SW-620, with CAKI-1, in the assay with TK-10, with RXF 393, with IGROV-1 and with U-251 was > 100 µM (inactive) throughout. Further, the GI50 in the assay with SK-MEL-28 is > 100 µM (inactive).
In the case of `CC1(C(=O)O)CCOc2ccccc21` (stereo not drawn), the GI50 in the assay with CCRF-CEM, in the assay on HOP-18, in the assay with SNB-19, with A498, in the assay on M14 and in the assay with SNB-78 was > 100 µM (inactive) throughout. For the same compound, the GI50 in the assay with SW-620, in the assay on CAKI-1, in the assay with NCI-H226, in the assay with TK-10, with RXF 393 and in the assay on IGROV-1 was > 100 µM (inactive) throughout. Moreover, the GI50 with SK-MEL-28 was > 100 µM (inactive).

These data come from ChEMBL document CHEMBL1201862, “PubChem BioAssay data set” (2004).
